For experiment [1], the system named is Sprague Dawley rats. The experiment in a line: Cardiovascular and behavioral effects: ECG changes during i.v. infusion in conscious rats. Type of experiment: in vivo, rat. As for the experimental part:
Preparative surgery is performed in Sprague Dawley rats weighing 200–300 gm and anaesthetized with 65 mg/kg (i.p.) pentobarbital. The femoral artery and vein are cannulated using polyethylene (PE)-10 tubing. Prior to surgery, this PE-10 tubing had been annealed to a wider gauge (PE-50) tubing for externalization. The cannulated PE-10/PE-50 tubing is passed through a trocar and exteriorised together with three (lead II) limb ECG leads (see below). The trocar is threaded under the skin of the back and out through a small incision at the mid-scapular region. A ground ECG electrode is inserted subcutaneously using a 20 gauge needle with the lead wire threaded through it. To place the other ECG electrodes, a small incision is made in the anterior chest region over the heart and ECG leads are inserted into the subcutaneous muscle layer in the region of the heart using a 20 guage needle. Other ECG leads are inserted into the subcutaneous muscle layer in the region near the base of the neck and shoulder (right side). The animal is returned to a clean recovery-cage with free access to food and water. The treatment and observational period for each animal commenced after a 24-hour recovery period.
A 15 min observational period is recorded followed by the intravenous infusion regime of the test compound at an initial dose of 2.0 μmol/kg/min (at 1 ml/hr). This rate is doubled every 5 minutes until one of the following effects is observed:
Blood pressure (BP), heart rate (HR) and ECG variables are continuously recorded while behavioral responses are also monitored and the total accumulative drug dose and drug infusion rate at which the response (such as convulsion, piloerection, ataxia, restlessness, compulsive chewing, lip-smacking, wet dog shake etc.) occurred are recorded.
Electrocardiograph (ECG) parameters: PR, QRS, QT1 (peak of T-wave), QT2 (midpoint of T-wave deflection) and hemodynamic parameters: BP and HR are analyzed using the automated analysis function in LabView (National Instruments) with a customized autoanalysis software (Nortran Pharmaceuticals). The infused dose producing 25% from control (D25) for all recorded ECG variables is determined.
Table 2 describes the results of the tests as D25 (micromol/kg) which are the doses required to produce a 25% increase in the ECG parameter measured (ne=not estimated). The increases in P-R interval and QRS interval indicate cardiac sodium channel blockade while the increase in Q-T interval indicates cardiac potassium channel blockade.

Experiment [2] has as its target T1, hH1 Na+ current (Homo sapiens, UniProt Q14524).
T1 construct: expressed in transfected cells; host or cells: HEK cells, transient transfection, vector pCDNA3
The experiment in a line: Patch-clamp inhibition of cloned ion channel current in transfected HEK cells: Na. It is filed as cell-based. Conditions: peak hH1 Na+ current, -100 mV to -30 mV. As for the experimental part: The relevant cloned ion channels (e.g. cardiac hH1, Kv1.4, Kv1.5, Kv4.2, Kv2.1, HERG etc.) are studied by transient transfection into HEK cells using the mammalian expression vector pCDNA3. Transfections for each channel type are carried out separately to allow individual study of the ion channel of interest. Cells expressing channel protein are detected by cotransfecting cells with the vector pHook-1 (Invitrogen, San Diego, Calif., USA). […] Equal concentrations of individual channel and pHook DNA are incubated with 10× concentration of lipofectAce in Modified Eagle's Medium (MEM, Canadian Life Technologies) and incubated with parent HEK cells plated on 25 mm culture dishes. After 3–4 hours the solution is replaced with a standard culture medium plus 20% fetal bovine serum and 1% antimycotic. Transfected cells are maintained at 37C in an air/5% CO2 incubator in 25 mm Petri dishes plated on glass coverslips for 24–48 hours to allow channel expression to occur. 20 min prior to experiments, cells are treated with beads coated with phOX. After 15 min, excess beads are […] off with cell culture medium and cells which had beads stuck to them are used for electrophysiological tests.
For whole-cell recording the control pipette filling solution contained (in mM): KCl, 130; EGTA, 5; MgCl2, 1; HEPES, 10; Na2ATP, 4; GTP, 0.1; and is adjusted to pH 7.2 with KOH. The control bath solution contained (in mM): NaCl, 135; KCI, 5; sodium acetate, 2.8; MgCl2, 1; HEPES, 10; CaCl2, 1; and is adjusted to pH 7.4 with NaOH. The test ion channel modulating compound is dissolved to 10 mM stock solutions in water and used at concentrations between 0.5 and 100 μM.
Coverslips containing cells are removed from the incubator before experiments and placed in a superfusion chamber (volume 250 μl) containing the control bath solution at 22C to 23C. All recordings are made via the variations of the patch-clamp technique, using an Axopatch 200A amplifier (Axon Instruments, CA). Patch electrodes are pulled from thin-walled borosilicate glass (World Precision Instruments; FL) on a horizontal micropipette puller, fire-polished, and filled with appropriate solutions. Electrodes had resistances of […] when filled with control filling solution. Analog capacity compensation is used in all whole cell measurements. In some experiments, leak subtraction is applied to data. Membrane potentials have not been corrected for any junctional potentials that arose between the pipette and bath solution. Data are filtered at 5 to 10 kHz before digitization and stored on a microcomputer for later analysis using the pClamp6 software (Axon Instruments, Foster City, Calif.). Due to the high level of expression of channel cDNA's in HEK cells, there is no need for signal averaging. The average cell capacitance is quite small, and the absence of ionic current at negative membrane potentials allowed faithful leak subtraction of data.
The concentration-response curves for changes in peak and steady-state current produced by the test compound are computer-fitted to the Hill equation: f=1−1/[1+([…])^n] [1]
where f is the fractional current (f=Idrug/Icontrol) at drug concentration [D]; IC50 is the concentration producing half-maximal inhibition and n is the Hill coefficient.
Compounds of the present invention may be evaluated by this method. […] Block is determined from the decrease in peak hH1 Na^+ current, or in steady-state Kv1.5 and integrated Kv4.2 current in the presence of drug. To record Na^+ current, cells are depolarized from the holding potential of −100 mV to a voltage of −30 mV for 10 ms to fully open and inactivate the channel. To record Kv1.5 and Kv4.2 current, cells are depolarized from the holding potential of −80 mV to a voltage of +60 mV for 200 ms to fully open the channel. Currents are recorded in the steady-state at a range of drug concentrations during stimulation every 4 s. […]

Experiment [3] deals with T2, Kv1.5 (Homo sapiens, UniProt P22460).
T2 construct: expressed in transfected cells; host or cells: HEK cells, transient transfection, vector pCDNA3
The experiment in a line: Patch-clamp inhibition of cloned ion channel current in transfected HEK cells: Kv1.5. Type of experiment: cell-based. Conditions: steady-state current, -80 mV to +60 mV. Summed up:
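Whole-cell patch clamp at 22–23 °C on transiently transfected HEK cells, compound 0.5–100 μM, pulses every 4 s. Na+: peak current, −100 mV holding, −30 mV for 10 ms; Kv1.5 (steady-state) and Kv4.2 (integrated): −80 mV holding, +60 mV for 200 ms. IC50 by Hill fit, 4–6 cells.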

T2 sequence (P22460 whole entry): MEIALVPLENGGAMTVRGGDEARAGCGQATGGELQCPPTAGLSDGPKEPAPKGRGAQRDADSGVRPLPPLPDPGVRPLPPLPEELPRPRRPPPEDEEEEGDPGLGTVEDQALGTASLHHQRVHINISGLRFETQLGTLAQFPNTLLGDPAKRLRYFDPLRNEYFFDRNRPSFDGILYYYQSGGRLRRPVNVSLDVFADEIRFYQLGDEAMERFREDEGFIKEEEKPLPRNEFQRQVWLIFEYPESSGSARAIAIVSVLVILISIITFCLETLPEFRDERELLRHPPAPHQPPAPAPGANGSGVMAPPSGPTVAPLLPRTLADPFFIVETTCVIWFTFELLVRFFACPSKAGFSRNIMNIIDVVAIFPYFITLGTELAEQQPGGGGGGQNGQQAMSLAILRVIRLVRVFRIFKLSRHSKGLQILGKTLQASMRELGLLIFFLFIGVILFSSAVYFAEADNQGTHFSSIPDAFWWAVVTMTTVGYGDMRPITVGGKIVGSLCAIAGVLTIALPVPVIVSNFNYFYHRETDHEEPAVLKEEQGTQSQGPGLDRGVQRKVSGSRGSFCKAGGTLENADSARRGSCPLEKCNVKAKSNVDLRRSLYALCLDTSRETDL
T1 sequence (Q14524 whole entry): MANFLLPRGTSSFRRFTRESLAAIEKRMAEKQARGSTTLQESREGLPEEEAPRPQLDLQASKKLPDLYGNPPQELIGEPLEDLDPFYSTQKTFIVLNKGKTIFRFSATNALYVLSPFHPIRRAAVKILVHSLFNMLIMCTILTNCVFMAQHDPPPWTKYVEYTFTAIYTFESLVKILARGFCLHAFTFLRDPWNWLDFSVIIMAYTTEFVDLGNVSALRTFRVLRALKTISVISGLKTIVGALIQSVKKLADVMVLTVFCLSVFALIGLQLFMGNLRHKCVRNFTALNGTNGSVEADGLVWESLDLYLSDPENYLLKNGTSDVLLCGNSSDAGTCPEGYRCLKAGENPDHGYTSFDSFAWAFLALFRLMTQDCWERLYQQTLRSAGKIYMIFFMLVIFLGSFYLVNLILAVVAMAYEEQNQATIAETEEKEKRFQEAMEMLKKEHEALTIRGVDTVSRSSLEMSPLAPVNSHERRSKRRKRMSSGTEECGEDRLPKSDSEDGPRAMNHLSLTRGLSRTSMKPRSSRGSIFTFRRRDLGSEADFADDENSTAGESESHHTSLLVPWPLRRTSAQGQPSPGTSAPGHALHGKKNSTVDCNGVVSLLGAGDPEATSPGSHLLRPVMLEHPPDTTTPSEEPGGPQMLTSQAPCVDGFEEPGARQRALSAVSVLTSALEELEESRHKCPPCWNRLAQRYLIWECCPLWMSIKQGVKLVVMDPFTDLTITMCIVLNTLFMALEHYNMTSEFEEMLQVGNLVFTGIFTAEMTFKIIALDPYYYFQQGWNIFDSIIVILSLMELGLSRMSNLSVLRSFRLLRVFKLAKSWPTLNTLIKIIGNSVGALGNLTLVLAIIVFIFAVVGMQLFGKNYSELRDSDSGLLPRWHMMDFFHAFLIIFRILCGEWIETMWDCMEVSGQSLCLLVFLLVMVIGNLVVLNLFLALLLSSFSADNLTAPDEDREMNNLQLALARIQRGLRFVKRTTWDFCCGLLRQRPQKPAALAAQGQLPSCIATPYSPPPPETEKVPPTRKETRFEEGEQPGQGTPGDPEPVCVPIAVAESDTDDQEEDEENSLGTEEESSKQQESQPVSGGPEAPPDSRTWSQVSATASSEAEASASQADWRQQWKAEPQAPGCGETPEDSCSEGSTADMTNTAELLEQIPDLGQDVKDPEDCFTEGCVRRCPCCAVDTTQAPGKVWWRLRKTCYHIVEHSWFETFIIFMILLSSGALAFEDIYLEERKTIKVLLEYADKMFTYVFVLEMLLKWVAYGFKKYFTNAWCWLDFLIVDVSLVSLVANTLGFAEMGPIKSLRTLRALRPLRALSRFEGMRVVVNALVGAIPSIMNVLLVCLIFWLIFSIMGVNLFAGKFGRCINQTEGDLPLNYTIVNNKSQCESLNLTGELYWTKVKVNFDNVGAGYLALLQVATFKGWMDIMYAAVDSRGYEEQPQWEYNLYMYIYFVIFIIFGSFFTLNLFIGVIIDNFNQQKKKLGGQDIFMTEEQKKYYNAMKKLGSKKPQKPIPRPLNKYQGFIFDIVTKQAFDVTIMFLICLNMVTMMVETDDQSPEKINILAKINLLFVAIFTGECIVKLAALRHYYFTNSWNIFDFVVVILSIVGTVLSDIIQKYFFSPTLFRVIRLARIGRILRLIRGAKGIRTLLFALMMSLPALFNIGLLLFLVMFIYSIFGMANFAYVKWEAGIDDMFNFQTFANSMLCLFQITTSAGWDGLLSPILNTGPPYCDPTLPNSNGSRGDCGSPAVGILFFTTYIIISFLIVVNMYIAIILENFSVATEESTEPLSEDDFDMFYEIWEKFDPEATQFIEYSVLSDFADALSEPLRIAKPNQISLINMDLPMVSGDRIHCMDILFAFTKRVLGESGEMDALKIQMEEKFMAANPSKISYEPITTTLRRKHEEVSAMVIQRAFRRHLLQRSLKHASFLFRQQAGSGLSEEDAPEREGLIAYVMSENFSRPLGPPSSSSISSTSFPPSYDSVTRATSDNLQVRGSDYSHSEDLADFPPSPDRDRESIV

`COc1ccc(CCCOc2cccn3cc(C)nc23)cc1OC` [Compound 3, 8-[3-(3,4-DIMETHOXYPHENYL)PROPOXY]-2-METHYLIMIDAZO[1,2-α]PYRIDINE MONOHYDROCHLORDE]: in experiment [1] (indicates cardiac potassium channel blockade), the “D25 QT (dose required to produce a 25% increase in Q-T interval)” value stood at 16 µmol/kg. For the same compound, the “D25 PR (dose required to produce a 25% increase in P-R interval)” value in experiment [1] (indicates cardiac sodium channel blockade) was 21 µmol/kg. Further, the IC50 in experiment [2] is 94 µM; in experiment [3], 6 µM.

These data come from patent US7105534B2, “Imidazo[1,2-α]pyridine ether compounds as ion channel modulators” (Cardiome Pharma Corp., priority 2000, dated 2006).
